{
  "source": "patent US9376421B2",
  "about": "“Compounds and methods for myotonic dystrophy therapy” (The Board of Trustees of the University of Illinois, priority 2014, dated 2016)",
  "key": {"cells": {"test_system": "cells", "settings": "cited from earlier work"}, "[1]": {"test_system": "SV40 terminator mRNA in i(CUG)480 larvae", "test": "SV40 mRNA level in i(CUG)480 larvae (real-time PCR)", "assay_type": "in vivo, Drosophila", "settings": "relative to actin RNA"}, "[2]": {"test_system": "DM1 Drosophila expressing i(CTG)480", "test": "External eye assay in DM1 Drosophila", "assay_type": "in vivo", "quoted_text": "Drosophila lines were cultured in standard cornmeal medium supplemented with dry yeasts. […] The gmr-GAL4 and 24B-GAL4 lines were used to drive UAS transgene expression in eye and muscles respectively. Ligands 2 and 9 were dissolved in ddH2O and mixed with fly food. Genetic crosses were set up in drug-containing fly food at 21.5° C. for external eye assay, and at 25° C. for larval crawling assay and real-time PCR analysis."}, "cTNT minigene splicing": {"test_system": "cTNT minigene splicing", "settings": "DM1 model cell cultures; cited from earlier work"}, "[3]": {"test_system": "SV40 terminator mRNA in i(CUG)60 larvae", "test": "SV40 mRNA level in i(CUG)60 larvae (real-time PCR)", "assay_type": "in vivo, Drosophila", "settings": "400 μM"}, "[4]": {"test_system": "Drosophila larvae expressing i(CUG)480", "test": "Larval crawling assay in DM1 Drosophila", "assay_type": "in vivo", "settings": "400 μM; untreated i(CUG)480 9 lines/min", "description": "To test the abilities of 2 and 9 to improve the locomotor behavior of Drosophila larvae, we used crawling assays (Nichols et al., J. Vis. Exp. 61, e3795 (2012); Lanson et al., Hum. Mol. Genet. 20, 2510-2523 (2011); Batlevi et al., Proc. Natl. Acad. Sci. U.S.A. 107, 742-747 (2010)). […] Those expressing i(CUG)480 (SEQ ID NO: 17) crossed only 9 lines/min (FIG. 9b). […] Importantly, the phenotypic improvement with both compounds was dose-dependent and 9 in all cases provided greater phenotypic reversal than did 2.\nDrosophila lines were cultured in standard cornmeal medium supplemented with dry yeasts. Fly lines bearing UAS-(CTG)60 (SEQ ID NO: 5) and UAS-(CTG)480 (SEQ ID NO: 6) were kind gifts of Prof. Rubén Artero Allepuz (Universitat de València, Estudi General, Spain). The gmr-GAL4 and 24B-GAL4 lines were used to drive UAS transgene expression in eye and muscles respectively. Ligands 2 and 9 were dissolved in ddH2O and mixed with fly food. […]\nLarval crawling assays were performed as described in Lanson et al (Hum. Mol. Genet. 20, 2510-2523 (2011)). […] The larvae were allowed to acclimate for a period of 1 min, and the total number of gridlines that the posterior end of the larvae passed in 1 min was determined Each set of experiment was repeated independently three times using larvae collected from separate genetic crosses."}, "d(CAG)12": {"test_system": "d(CAG)12", "test": "Isothermal titration calorimetry, d(CAG)12", "assay_type": "binding", "settings": "25° C., 20 mM MOPS pH 7.0, 300 mM NaCl", "protocol": "To directly assess the DNA-targeting ability of 9, ITC experiments were performed with oligonucleotide analogs of the various trinucleotide repeat sequences (Table 1). […] This supports the idea that 9 inhibits the transcription of CTG^exp by stabilizing its hairpin structure. […] The in vitro transcription experiment using (CTG[…]CAG)74 (SEQ ID NOS 3-4, respectively) and compounds 2, 5-7, and 9 was repeated but with (CUG)16 (SEQ ID NO: 1) added as a competitor.\nIsothermal titration calorimetry (ITC) measurements were performed at 25° C. on a MicroCal VP-ITC (MicroCal, Inc., Northampton, Mass.). A standard experiment consisted of titrating 10 μL of a 500 μM ligand solution from a […] syringe (rotating at 300 rpm) into a sample cell containing 1.42 mL of a 10 μM DNA or RNA solution. An ITC experiment consisted of 28 total injections (first injection was 5 μL, subsequent injections were 10 μL), with a 10 s duration per injection and delay of 380 s between injections. The initial delay prior to the first injection was 300 s. To derive the heat associated with each injection, the area under each isotherm (microcalories per second versus seconds) was determined by integration by the graphing program Origin 7.0 (MicroCal, Inc. Northampton, Mass.). […]"}, "(CUG)n": {"test_system": "(CUG)n", "test": "Ligand-RNA binding affinity, (CUG)n", "description": "Off target activity is a concern for any therapeutic agent but especially one designed to cleave RNA. To test the selectivity of agents 6 and 9, the screening gel assay described above was applied to other RNA targets, specifically cTNT32, (CCUG)8 (SEQ ID NO: 11), and HIV-1 frameshift site RNA (HIV FS) (FIG. 5a). Both 6 and 9 were quite selective. […] Thus, both similarly adopt stem-loop structures with internal loops within the stem, although obviously of different sequences. Differences between 6 and 9 were observed (FIG. 5) with the former cleaving (CCUG)8 (SEQ ID NO: 11), the toxic RNA involved in myotonic dystrophy type 2 (DM2). […] The ability to process the RNA directly parallels the corresponding ligand-RNA binding affinities. Thus, 1, which contains the acridine-triazine core of agent 6, complexes the (CCUG)6 (SEQ ID NO: 12) and (CUG)n sequences."}},
  "note": "“Also recorded” adds a separate entry of the source.",
  "data": [
    {"smiles": "N=C(NCCCCNc1nc(N)nc(N)n1)c1ccc(C(=N)NCCCCNc2nc(N)nc(N)n2)cc1", "note": "[Ligand 2]", "values": [
      {"measurement": "cell permeability / cell uptake", "setting": "cells", "result": "better cell uptake"},
      {"measurement": "reduction of SV40 mRNA levels in i(CUG)480 larvae", "setting": "[1]", "result": "did not"},
      {"measurement": "disease phenotype in DM1 fly eyes at 200 μM", "setting": "[2]; 200 μM", "result": "reversed the disease phenotype"},
      {"measurement": "neurodegenerative (glossy and rough-eye) phenotype", "setting": "[2]; in fly food, 6 d", "result": "reversal of the disease phenotype but less effectively; also recorded: improved the neurodegeneration"},
      {"measurement": "rescue of splicing defect of cTNT minigene (earlier work)", "setting": "cTNT minigene splicing", "result": "partially rescued"},
      {"measurement": "SV40 mRNA levels in larvae having i(CUG)60", "setting": "[3]", "result": "no change"},
      {"measurement": "average crawling speed", "setting": "[4]", "result": "ca. 13 lines/min"},
      {"measurement": "binding affinity toward d(CAG)12 by ITC", "setting": "d(CAG)12", "result": "lack of binding affinity"},
      {"measurement": "complexation of (CUG)n", "setting": "(CUG)n", "result": "complexes"}
    ]}
  ]
}
